Test results published in PubChem BioAssay (NCI).
≈ marks a conversion by molar mass, not a printed value. Where “and” joins values, the source holds several entries; their conditions need not be identical. Identical values can stand only once.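 All cell lines were grown in 96-well plates and treated with compound for 48 hours. GI50: concentration for 50% inhibition of growth. TGI denotes the concentration required for complete inhibition of growth.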

Key:
Assay in all cases: NCI-60 cell line screen, 48 h
DMS 273 small cell lung = system: DMS 273 small cell lung
SF-268 CNS = system: SF-268 CNS
CAKI-1 renal = system: CAKI-1 renal
OVCAR-5 ovarian = system: OVCAR-5 ovarian
DLD-1 colon = system: DLD-1 colon
HOP-62 NSCLC = system: HOP-62 NSCLC
OVCAR-3 ovarian = system: OVCAR-3 ovarian
KM20L2 colon = system: KM20L2 colon
RPMI-8226 leukemia = system: RPMI-8226 leukemia
KM12 colon = system: KM12 colon
M19-MEL melanoma = system: M19-MEL melanoma
MDA-MB-435 = system: MDA-MB-435

| SMILES | TGI (DMS 273 small cell lung) [µM] | TGI (SF-268 CNS) | TGI (CAKI-1 renal) [µM] | TGI (OVCAR-5 ovarian) [µM] | TGI (DLD-1 colon) [µM] | TGI (HOP-62 NSCLC) [µM] | TGI (OVCAR-3 ovarian) [µM] | TGI (KM20L2 colon) [µM] | TGI (RPMI-8226 leukemia) [µM] | TGI (KM12 colon) [µM] | TGI (M19-MEL melanoma) [µM] | GI50 (MDA-MB-435) [µg/mL] | GI50 (SF-268 CNS) | GI50 (CAKI-1 renal) | GI50 (OVCAR-5 ovarian) [µg/mL] | GI50 (HOP-62 NSCLC) [µg/mL] | GI50 (OVCAR-3 ovarian) [µg/mL] | GI50 (RPMI-8226 leukemia) [µg/mL] | GI50 (KM12 colon) [µg/mL] | TGI (MDA-MB-435) [µM] |
| --- | --- | --- | --- | --- | --- | --- | --- | --- | --- | --- | --- | --- | --- | --- | --- | --- | --- | --- | --- | --- |
| COc1cc2c3c(c1OC)Oc1ccc(cc1)CC1c4c(cc(OC)c(OC)c4Oc4ccc(cc4)CC3N(C)CC2)CCN1C (stereo not given) | 37.2 | 64.5 µM | > 100 | > 100 | > 100 | 61.4 | 44.7 | 45.2 | 70.4 | > 100 | 31.3 | – | – | – | – | – | – | – | – | – |
| Cc1cc(Cl)ccc1NC(=O)CCCC(=O)C(C(=O)c1ccccc1)c1ccccc1 (stereo not given) | > 100 | > 100 µM | > 100 | > 100 | > 100 | > 100 | > 100 | > 100 | > 100 | > 100 | > 100 | – | – | – | – | – | – | – | – | – |
| O=C1C2=C(c3ccccc31)C(c1ccc(Cl)cc1)NC(=S)N2 (stereo not given) | 42.8 | 40.1 µM | 78.3 | > 100 | 60.9 | > 100 | 39.6 | 37.4 | 52.8 | 52.5 | 37.2 | – | – | – | – | – | – | – | – | – |
| O=C1C2=C(c3ccccc31)C(c1ccc(F)cc1)N1C(=O)CCSC1=N2 (stereo not given) | > 100 | > 100 µM | > 100 | > 100 | > 100 | > 100 | > 100 | > 100 | > 100 | > 100 | > 100 | – | – | – | – | – | – | – | – | – |
| COC(=O)/C(=N/O)C(C(=O)OC)C(=O)C(=O)Nc1c(Cl)cc(C)cc1S(=O)(=O)O (stereo not given) | 33.2 | > 100 µM | > 100 | > 100 | > 100 | > 100 | > 100 | > 100 | 53.3 | > 100 | > 100 | – | – | – | – | – | – | – | – | – |
| N[C@H](C(=O)O)[C@@H](Cl)CC(=O)O | > 100 | > 100 µM | > 100 | > 100 | > 100 | > 100 | > 100 | > 100 | > 100 | > 100 | > 100 | – | – | – | – | – | – | – | – | – |
| O=C(Nc1ccccc1C(=O)O)C(=O)C(C(=O)c1ccccc1-c1ccccc1)C1OC(=O)c2ccccc21 (stereo not given) | 95.3 | 39.5 µM | > 100 | 42.2 | 47 | 37.8 | 34.3 | 44 | 98.2 | 33.6 | 64.2 | – | – | – | – | – | – | – | – | – |
| CCOC(=O)NC(=O)c1cn(C2OC(CO)C(O)C2O)c(=O)[nH]c1=O (stereo not given) | > 100 | > 100 µM | > 100 | > 100 | > 100 | > 100 | > 100 | > 100 | > 100 | > 100 | > 100 | – | – | – | – | – | – | – | – | – |
| Cc1c(N)nc(C(CC(N)=O)NCC(N)C(N)=O)nc1C(=O)NC(C(=O)NC(C)C(O)C(C)C(=O)NC(C(=O)NCCc1nc(-c2nc(C(=O)NCCCNCCCCN)cs2)cs1)C(C)O)C(OC1OC(CO)C(O)C(O)C1OC1OC(CO)C(O)C(OC(N)=O)C1O)c1cnc[nH]1 (stereo not given) | > 10 | 23.8 µg/mL and > 10 µM | 2.38 | > 10 | > 10 | – | – | > 10 | > 10 | > 10 | > 10 | 15.9 (≈ 11 µM) | 2.55 µg/mL and 0.324 µg/mL | 0.845 µg/mL and 2.94 µg/mL | 45.6 (≈ 31.7 µM) | 0.137 (≈ 0.095 µM) | 7.69 (≈ 5.34 µM) | 13.3 (≈ 9.2 µM) | 40 (≈ 27.7 µM) | – |
| CN/N=C(\C(=O)Nc1ccc([N+](=O)[O-])cc1[N+](=O)[O-])C1NC(=O)NC1=O (stereo not given) | > 100 | > 100 µM | > 100 | > 100 | > 100 | > 100 | > 100 | > 100 | > 100 | > 100 | > 100 | – | – | – | – | – | – | – | – | – |
| COc1cc(C(=O)C/C(CCC(=O)Nc2ccc(Cl)cc2Cl)=N/Nc2nnc(C)n2N)ccc1O | > 100 | > 100 µM | > 100 | > 100 | > 100 | > 100 | > 100 | > 100 | > 100 | > 100 | > 100 | – | – | – | – | – | – | – | – | – |
| COc1cccc2ccc3c(c12)C(=O)OC31CCc2c(C)cccc21 (stereo not given) | > 31.6 | > 46.4 µM | > 46.4 | > 46.4 | > 31.6 | > 46.4 | > 46.4 | > 31.6 | 21.5 | > 100 | > 31.6 | – | – | – | – | – | – | – | – | > 100 |
| Cc1cccc(O)c(=O)c1 | > 100 | > 100 µM | > 100 | > 100 | > 100 | > 100 | > 100 | > 100 | 92.6 | > 100 | > 100 | – | – | – | – | – | – | – | – | – |
